Patent publication US6498149B1, “Natural antitumor or antiviral substances and use of the same” (Techno Seven Co., Ltd., priority 1997, dated 2002)

Legend:
[1] = test system: Molt4 (human T cell leukemia cell line); assay: Suppression of incorporation of 3H-thymidine into / proliferation of the Molt4 cell; assay type: cell-based; settings: samples from single HPLC peaks, 7 μg/ml
Description: The apoptosis inducing factor (AIF) is produced and released in the supernatant of the NS cell line culture. Thus, the AIF produced by the NS cell was separated and purified by the physico-chemical methods. The activity of AIF was measured by the ability of […] and the DNA fragmentation method. First, the supernatant of the culture of the NS cell line was adsorbed on a C18 column and eluted to separate the AIF. The crude extract was developed on a thin layer chromatography (TLC) plate, and the active fractions were isolated and purified by reverse phase high performance liquid chromatography (HPLC).
The sample lyophilized from 50 ml of the supernatant of the NS cell line culture was subjected to chromatography on a C18 column (BONDELUTE), and the fraction retained in the column was separated and eluted with acetonitrile and methanol, and concentrated to dryness by evaporating the solvents with nitrogen gas.
The fraction was further developed by TLC. That is to say, the solution of the materials separated on the C18 column in chloroform: methanol (1:1) was spotted on a thin layer and developed by chloroform: methanol: distilled water (60:40:8). […]

[2] = Physico-chemical properties (solubility, acid/base nature); assay type: physicochemical

| SMILES | suppression of incorporation of 3H-thymidine into the Molt4 cell [1] | discrimination of acidic, neutral and basic substances [2] | solubility [2] |
| --- | --- | --- | --- |
| Cc1cn([C@@H]2O[C@H](CO)[C@@H](O)[C@H]2O)c(=O)[nH]c1=O [P2, ribothymidine] | strong activity | basic substance | soluble in organic solvents such as methanol, dimethylsulfoxide and in water |
| Cc1cn([C@H]2C[C@H](O)[C@@H](CO)O2)c(=O)[nH]c1=O [P4, thymidine] |  | basic substance | soluble in organic solvents such as methanol, dimethylsulfoxide and in water |
| CO[C@@H]1[C@H](O)[C@@H](CO)O[C@H]1n1cnc2c(O)ncnc21 [P5, 2′-O-methylinosine] |  | basic substance | soluble in organic solvents such as methanol, dimethylsulfoxide and in water |
| CO[C@@H]1[C@H](O)[C@@H](CO)O[C@H]1n1cnc2c(=O)[nH]c(N)nc21 [P6, 2′-O-methylguanosine] |  | basic substance | soluble in organic solvents such as methanol, dimethylsulfoxide and in water |
